Where two headings read alike, the source gives them in different places.
Columns and labels:
Format in all cases: in vitro ADME
[1] = test system: pooled human liver S9 fraction (pHLS9) and HepaRG cells; experiment: In vitro metabolism by pHLS9 and HepaRG cells (LC-HRMS/MS metabolite identification); settings: 25 µM substrate
[2] = In vitro plasma protein binding (ultrafiltration, Centrifree); settings: human, pooled human blood plasma, 30 min, 37 °C, ultrafiltration
Protocol: (§1) PPB was investigated according to a previous study with minor modifications (Kroesen et al. [2025]). Fresh and pooled human blood plasma (450 µL) was spiked with 50 µL of a 5 µM methanolic solution of 4MeO-NE-BP, 4MeO-αP-BP, 4MeO-αP-VP, 4MeS-NE-BP, 4MeS-αP-BP, or 4MeS-αMor-PrP. The mixture was incubated for 30 min at 37 °C and with gentle shaking at 200 rpm. […] The Centrifree devices were centrifuged for 35 min at 1600 × g to obtain 100 µL of the ultrafiltrate (UF). […] Experiments were performed in quadruplicate. Fraction unbound (fu) and PPB were determined by comparing the area ratios of the compound and trimipramine-d3 as an internal standard in the UF and GA using the following equations:1 fu=peak area ratiocompoundUF/ISUF/peak area ratiocompoundGA/ISGA 2 PPB[\%]=1-fu∗100.

[3] = test system: plasma proteins (pooled human blood plasma); experiment: as above
Protocol: as §1

CYP2D6 = molecular target: T1, CYP2D6 (Homo sapiens, UniProt P10635); experiment: Monooxygenases activity screening, CYP2D6; settings: 25 µM, 30 min, 37 °C
T1 construct: purchased Discovery Life Sciences (Huntsville, LA, USA); host or cells: baculovirus-infected insect cells (microsomes, Supersomes)
T1 sequence (P10635 whole entry): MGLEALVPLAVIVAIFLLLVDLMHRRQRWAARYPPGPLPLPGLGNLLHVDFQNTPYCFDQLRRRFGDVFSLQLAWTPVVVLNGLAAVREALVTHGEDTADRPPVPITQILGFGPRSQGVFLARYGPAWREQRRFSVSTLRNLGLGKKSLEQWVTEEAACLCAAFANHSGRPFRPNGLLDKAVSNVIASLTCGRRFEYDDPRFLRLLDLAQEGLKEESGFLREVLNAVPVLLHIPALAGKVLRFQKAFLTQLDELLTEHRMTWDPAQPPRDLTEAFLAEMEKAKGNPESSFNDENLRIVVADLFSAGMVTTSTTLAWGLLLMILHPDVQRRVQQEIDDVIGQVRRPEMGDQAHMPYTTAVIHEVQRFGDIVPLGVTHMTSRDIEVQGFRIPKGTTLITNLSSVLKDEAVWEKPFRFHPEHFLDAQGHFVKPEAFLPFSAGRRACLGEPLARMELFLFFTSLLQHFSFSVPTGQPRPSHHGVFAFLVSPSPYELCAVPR
Protocol: For incubations with CYP2A6 or CYP2C9, phosphate buffer was replaced with 90 mM Tris buffer, according to the manufacturer’s guideline. […] All incubations were done in duplicate and concentrations were fixed. Verapamil (25 µM) was incubated as a positive control.

[4] = read-out: fu (unbound fraction)

SMILES: CCC(C(=O)c1ccc(OC)cc1)N1CCCC1 (stereo not drawn) [Compound 4MeO-αP-BP, 4’-methoxy-α-pyrrolidinobutyrophenone]
- metabolic reactions (metabolite IDs) identified [1]: hydroxylation (MO2.1), O-demethylation (MO2.2), N-oxidation (MO2.3), lactam formation (MO2.4), and hydroxylation + N-oxidation (MO2.5)
- number of metabolites tentatively identified [1]: 5
- fraction unbound at 30 min, 0.5 µM ([2]; read-out: PPB, % (converted)): > 0.5
- fraction unbound at 30 min, 0.5 µM [2, 4]: 0.54
- Plasma protein binding, class in words [3]: low
- PPB, % ([3]; 30 min, 37 °C, ultrafiltration): 46%

SMILES: CSc1ccc(C(=O)C(C)N2CCOCC2)cc1 (stereo not drawn) [4MeS-αMor-PrP, 4’-methylthio-2-morpholinopropiophenone]
- metabolic reactions (metabolite IDs) identified [1]: S-demethylation (MT3.1), hydroxylation (MT3.2), N-oxidation (MT3.3), oxo reduction (MT3.4), lactam formation (MT3.6), N,O-bis-dealkylation (MT3.7), dehydrogenation (MT3.9), and combinations thereof
- number of metabolites tentatively identified [1]: 10
- fraction unbound at 30 min, 0.5 µM ([2]; read-out: PPB, % (converted)): 0.14
- fraction unbound at 30 min, 0.5 µM [2, 4]: 0.14

SMILES: CCC(C(=O)c1ccc(SC)cc1)N1CCCC1 (stereo not drawn) [Compound 4MeS-αP-BP, 4’-methylthio-α-pyrrolidinobutyrophenone]
- metabolic reactions (metabolite IDs) identified [1]: S-demethylation (MT2.1), hydroxylation (MT2.2), N-oxidation (MT2.3), lactam formation (MT2.4), N,N-bis-dealkylation (MT2.5), dihydroxylation (MT2.6), S-demethylation + hydroxylation (MT2.7), and N-oxidation + hydroxylation (MT2.8)
- number of metabolites tentatively identified [1]: 8
- fraction unbound at 30 min, 0.5 µM ([2]; read-out: PPB, % (converted)): 0.16
- fraction unbound at 30 min, 0.5 µM [2, 4]: 0.16
- S-demethylation, only mediated by one CYP isoform (CYP2D6): CYP2D6
